We go through two compounds from patent US20220356163A1, “SMALL MOLECULE INHIBITORS OF Id PROTEINS” (MEMORIAL SLOAN KETTERING CANCER CENTER, priority 2019, published 2022).

Data set [1] has as its target T1, Id1 (59-104) (Mus musculus, UniProt P20067).
T1 construct: 1 μg of purified Id1 (a.a.59-104) and 19.7 ng of AGX51-XL2; made in house; host or cells: E. coli Rosetta 2(DE3)
The data set can be described thus: UV crosslinking of AGX51-XL2 to purified Id1 with mass spectrometry. The format is binding. To be noted: 10-fold excess of AGX51. The protocol: Covalent binding of AGX51 derivative to Id1. An analog of AGX51 (AGX51-XL2) was used which contains a benzophenone photoreactive moiety. 1 μg of purified Id1 (a.a.59-104) and 19.7 ng of AGX51-XL2 (dissolved in DMSO) were combined, in the dark, and then exposed to UV light for 20 minutes, a negative control without UV exposure was also included. The samples were then run in the dark on a 15% denaturing gel, silver stained according to the manufacturers protocol (SilverQuest Staining Kit, Invitrogen, Grand Island, N.Y., USA) and bands were excised for mass spectrometry as described below.
In-gel digestion for mass spectrometry. In-gel digestion was performed using the method by Shevchenko et al. (Nat Protoc 1(6):2856-60 (2006)). Briefly, gel bands were excised, washed with 1:1 (Acetonitrile: 100 mM ammonium bicarbonate) for 30 minutes, dehydrated with 100% acetonitrile for 10 minutes until gel slices shrunk and excess acetonitrile was removed and slices were dried in a speed-vac for 10 minutes without heat. Gel slices were reduced with 5 mM DTT for 30 minutes at 56° C. in a thermostated mixer with gentle mixing, removed, allowed to cool to room temperature then alkylated with 11 mM IAA for 30 minutes in the dark. Gel slices were washed with 100 mM ammonium bicarbonate and 100% acetonitrile for 10 minutes each. […]

Data set [2] relates to new blood vessel formation. The data set can be described thus: Matrigel plug anti-angiogenic assay. It counts as in vivo, mouse. To be noted: in plugs 25 μg/mg or daily ip 30 or 100 mg/kg, 10 days. The method, then: VEGF-165 and FGF-2 treated Matrigel plugs will be implanted on Day 0 into C57BL/6 mice. Mice will be treated with either vehicle, AGX51, or a compound of the present technology (such as AGX-A). The AGX51 and a compound of the present technology will be provided either in the plugs (25 μg/mg) or by daily ip treatment (30 or 100 mg/kg) for 10 days. Plugs will be harvested on Day 10, fixed and paraffin embedded. Three sections ([…]) of each plug will be stained with an anti-CD31 antibody and counterstained with hematoxylin and eosin stain. CD31-positive microvessels will be counted for one entire cross-section per plug and the average micro-vessel density±SD vessels will be determined. Student's t-test will be used for statistical analysis.

For data set [3], the system named is PDX RomeP_PHCH_X_0008a. Nature of the data set: Murine PDX model of cholangiocarcinoma, Round 1 (AGX-A in DMSO). It counts as in vivo, mouse. The method, then: A first round of the study (“Round 1”) was planned as indicated in the Round 1 Study Protocol blow, utilizing gemcitabine in saline and AGX-A in DMSO for administration. • Mice: NSG females, 6-8 weeks old • […], serially transplanted sc with matrigel • Treatment Groups (at least 6 animals/group): treatments started when tumors reached 100 mm^3 (“Day 0” for each animal) • Group 1. Saline, i.p. once a week (“QW”) for 3-4 weeks (“×3-4 weeks”) • Group 2. Gemcitabine 25 mg/kg i.p. QW×3-4 weeks • Group 3. AGX-A 10 mg/kg i.p. once a day for 5 consecutive days (“QD×5”)×3-4 weeks • Group 4. Gemcitabine 25 mg/kg […] 10 mg/kg i.p. QD×5×3-4 weeks Tumor volumes, weights, and clinical signs were monitored a minimum of twice per week for each animal in each group throughout the study. In the Round 1 study, it was observed that animal weight in Groups 1 and 2 was essentially unchanged for the duration of the study. […] Because of this, treatment in Groups 3 and 4 was halted after Day 9 while tumor volumes, weights, and clinical signs continued to be monitored a minimum of twice per week for each subject in each group. Subsequently, the animals in Groups 3 and 4 stopped loosing weight and instead started regaining weight. Meanwhile, treatment in Groups 1 and 2 continued as planned. Due to the alterations in the planned study, Round 1 was concluded at Day 20.

T1 sequence (P20067 59-104): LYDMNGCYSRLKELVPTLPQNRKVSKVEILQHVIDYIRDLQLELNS

On to `CCC(=O)N(CCC(c1ccc2c(c1)OCO2)c1ccccc1OC)Cc1ccccc1` (racemic) [AGX51, N-(3-(benzo[d][1,3]dioxol-5-yl)-3-(2-methoxyphenyl)propyl)-N-benzylpropionamide], for which the “AGX51-XL2 binding to Id1 in presence of competitor” value in data set [1] is “significant decrease in AGX51-XL2 binding to Id1”. Further, in data set [2], the “new blood vessel formation in Matrigel plugs” value is recorded as “significant protection from new blood vessel formation”.

With `COc1ccccc1C(CCNCc1ccccc1)c1ccc(OC(C)C)cc1` (stereo not shown) [AGX-A, N-benzyl-3-(4-isopropoxyphenyl)-3-(2-methoxyphenyl)propan-1-anine], in data set [3] (AGX-A 10 mg/kg i.p. QD×5 in DMSO, treatment discontinued at 9 days, vs gemcitabine 25 mg/kg QW), the tumor volume result is given as “performs better than the SOC drug gemcitabine”. Further, the animal weight result in data set [3] (AGX-A in DMSO, Groups 3 and 4) is reported as “weight loss was observed”.
